Experimental data published in the NIST ThermoML archive (doi:10.1016/j.tca.2012.04.030).

Assays:
[1] = an = ratio of the nth substance listed; settings: for surface tension liquid-gas: Ring tensiometer; for viscosity / mass density: 101 kPa, Liquid; for viscosity: Concentric cylinders viscometry; for mass density: Vibrating tube method
[2] = refractive index (Na D-line) (dimensionless); an = ratio of the nth substance listed; settings: 101 kPa, Liquid, Standard Abbe refractometry

O=C(CO)[C@@H](O)[C@H](O)[C@H](O)CO [D-fructose] + C[N+](C)(C)CCO.[Cl-]
Settings	mass density, [1] [kg/m3]	refractive index, [2]	surface tension liquid-gas, [1] [mN/m]	viscosity, [1] [mPa·s]
298.15 K, a2 = 1	1337	1.523	70.4	14347
298.15 K, a2 = 1.5	1303.6	1.521	73.6	12772
298.15 K, a2 = 2	1277.9	1.519	74	11733
298.15 K, a2 = 2.5	1259	1.522	75	17646
308.15 K, a2 = 1	1331.6	1.521	68	7722.9
308.15 K, a2 = 1.5	1298.2	1.519	71.7	7126.1
308.15 K, a2 = 2	1272.5	1.518	72	6137.1
308.15 K, a2 = 2.5	1253.7	1.52	73	8556.6
318.15 K, a2 = 1	1326.2	1.52	66	4050.5
318.15 K, a2 = 1.5	1292.7	1.517	69.5	3071
318.15 K, a2 = 2	1266.9	1.515	70	2457
318.15 K, a2 = 2.5	1248.5	1.517	71	4461.7
328.15 K, a2 = 1	1320.7	1.518	64.4	1415.9
328.15 K, a2 = 1.5	1287.3	1.515	67.3	1271.1
328.15 K, a2 = 2	1261.2	1.514	68	1261.7
328.15 K, a2 = 2.5	1243.3	1.516	69	1267.5
338.15 K, a2 = 1	1315.2	1.515	62.6	806.5
338.15 K, a2 = 1.5	1281.8	1.512	65.6	698.4
338.15 K, a2 = 2	1255.5	1.511	66	570.7
338.15 K, a2 = 2.5	1237.9	1.514	67	615.4
348.15 K, a2 = 1	1309.3	1.513	61	459.7
348.15 K, a2 = 1.5	1275.9	1.511	63	353.1
348.15 K, a2 = 2	1249.7	1.509	64	285.3
348.15 K, a2 = 2.5	1232.4	1.512	65	325.5
358.15 K, a2 = 1	1303.1	1.512	59	280.6
358.15 K, a2 = 1.5	1269.7	1.509	61.3	236.1
358.15 K, a2 = 2	1241.9	1.507	62	129.3
358.15 K, a2 = 2.5	1226.9	1.51	63	182.6
